Assays:
[1] = biological target: BRD2 (His-Brd2(60-472)) (Homo sapiens (Human), UniProt P25440); test: TR-FRET in-vitro binding assay for BRD2; conditions: single determination or n ≧ 2 independent determinations, read-out: Biochemical IC50 BRD2
How it was run: (§1)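 Compounds were serially diluted over eight concentrations and added to wells. TR-FRET signal was then measured.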

[2] = system: K-562 cells; test: Cell growth inhibition assay (CellTiter-Glo), K-562; conditions: for GI50: Homo sapiens, K562, read-out: K-562 GI50; for K-562 TGI: K-562 cells, total growth inhibition, CellTiter-Glo;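 for all read-outs here: cellular ATP measured by luminescence after 4 days of exposure, 3-fold dilution series from 10 µM, DMSO vehicle-treated cells define 100%, cell-free medium wells −100%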
[3] = system: THP-1 cells; test: Cell growth inhibition assay (CellTiter-Glo), THP-1; conditions: for GI50: Homo sapiens, THP-1, read-out: THP-1 GI50; for THP-1 TGI: THP-1 cells, total growth inhibition, CellTiter-Glo;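 for all read-outs here: viability read as cellular ATP luminescence after 4 days, 3-fold dilution series from 10 µM, DMSO vehicle-treated cells taken as 100%, cell-free medium wells as −100%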
[4] = biological target: CREBBP bromodomain (His-CREBBP(1081-1197)) (Homo sapiens (Human), UniProt Q92793); test: AlphaScreen in-vitro binding assay for CREBBP; conditions: single determination or n ≧ 2 independent determinations, read-out: Biochemical IC50 CREBBP
How it was run: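 Reactions at 30 °C for 35 min, then Ni-chelate acceptor and streptavidin donor beads in HEPES pH 7.5, NaCl, Tween20, BSA, 60 min at room temperature. Eight-point compound series; IC50 by non-linear regression of percent inhibition.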

[5] = biological target: BRD4 (His-Brd4(44-477)) (Homo sapiens (Human), UniProt O60885); test: TR-FRET in-vitro binding assay for BRD4; conditions: single determination or n ≧ 2 independent determinations, read-out: Biochemical IC50 BRD4
How it was run: as §1

[6] = system: MV-4-11 cells; test: Cell growth inhibition assay (CellTiter-Glo), MV-4-11; conditions: for GI50: Homo sapiens, MV4-11, read-out: MV-4-11 GI50; for MV-4-11 TGI: MV-4-11 cells, total growth inhibition, CellTiter-Glo;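 for all read-outs here: cellular ATP luminescence after 4 days, 3-fold dilution series from 10 µM top dose, vehicle (0.1% DMSO) set to 100%, cell-free medium set to −100%, day 0 corrected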
[7] = biological target: BRD3 (His-Brd3(20-477)) (Homo sapiens (Human), UniProt Q15059); test: TR-FRET in-vitro binding assay for BRD3; conditions: single determination or n ≧ 2 independent determinations, read-out: Biochemical IC50 BRD3
How it was run: as §1

Sequence of BRD2 (His-Brd2(60-472)) (P25440 60-472): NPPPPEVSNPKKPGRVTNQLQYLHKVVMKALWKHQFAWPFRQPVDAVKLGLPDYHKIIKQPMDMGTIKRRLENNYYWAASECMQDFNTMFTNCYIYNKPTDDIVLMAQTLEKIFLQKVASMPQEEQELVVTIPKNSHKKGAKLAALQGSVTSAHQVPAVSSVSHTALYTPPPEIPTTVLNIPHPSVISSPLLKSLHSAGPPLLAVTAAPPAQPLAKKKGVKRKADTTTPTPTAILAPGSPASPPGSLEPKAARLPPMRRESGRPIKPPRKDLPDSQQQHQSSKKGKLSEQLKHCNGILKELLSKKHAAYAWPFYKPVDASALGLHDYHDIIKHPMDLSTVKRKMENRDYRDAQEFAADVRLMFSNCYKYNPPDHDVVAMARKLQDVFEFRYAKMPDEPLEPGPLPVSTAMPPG
Sequence of CREBBP bromodomain (His-CREBBP(1081-1197)) (Q92793 1081-1197): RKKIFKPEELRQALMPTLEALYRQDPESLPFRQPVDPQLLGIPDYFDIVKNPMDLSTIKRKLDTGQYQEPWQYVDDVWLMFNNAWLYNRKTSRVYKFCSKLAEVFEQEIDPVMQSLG
Sequence of BRD3 (His-Brd3(20-477)) (Q15059 20-477): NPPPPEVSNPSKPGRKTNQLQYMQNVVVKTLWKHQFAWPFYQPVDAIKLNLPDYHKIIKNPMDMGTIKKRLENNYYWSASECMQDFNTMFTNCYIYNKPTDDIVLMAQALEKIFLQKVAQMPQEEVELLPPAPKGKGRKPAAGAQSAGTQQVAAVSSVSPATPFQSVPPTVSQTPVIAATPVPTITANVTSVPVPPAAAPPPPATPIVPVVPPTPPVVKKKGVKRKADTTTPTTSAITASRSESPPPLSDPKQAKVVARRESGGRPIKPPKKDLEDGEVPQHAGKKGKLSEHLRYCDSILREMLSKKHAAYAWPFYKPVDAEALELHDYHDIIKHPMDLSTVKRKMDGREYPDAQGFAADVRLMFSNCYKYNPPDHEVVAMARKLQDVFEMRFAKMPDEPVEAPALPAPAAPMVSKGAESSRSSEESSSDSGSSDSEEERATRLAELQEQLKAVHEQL

Compound	IC50 [1]	GI50 [2]	GI50 [3]	IC50 [4]	IC50 [5]	GI50 [6]	IC50 [7]	K-562 TGI [2]	THP-1 TGI [3]	MV-4-11 TGI [6]
Cc1cc(N2C(=O)c3nc(C4=CCCN(C)C4)n(C(C)C)c3[C@H]2c2ccc(Cl)cc2)cn2c(C)nnc12 [Example 85]	29 nM	277 nM	138 nM	3650 nM	15 nM	16.3 nM	20 nM	>10000 nM	370 nM	32.5 nM
Cc1cc(N2C(=O)c3nc(C4CCOCC4)n(C(C)C)c3C2c2ccc(Cl)cc2)cn2c(C)nnc12 (stereo not drawn) [Example 86, 6-(4-chlorophenyl)-5-(3,8-dimethyl-[1,2,4]triazolo[4,3-a]pyridin-6-yl)-1-isopropyl-2-(tetrahydro-2H-pyran-4-yl)-5,6-dihydropyrrolo[3,4-d]imidazol-4(1H)-one]	19 nM	250 nM	57 nM	3800 nM	< 11 nM	20.8 nM	< 11 nM	>10000 nM	155 nM	43 nM
Cc1cc(N2C(=O)c3nc(C4CCOCC4)n(C(C)C)c3[C@H]2c2ccc(Cl)cc2)cn2c(C)nnc12 [Example 87, (R)-6-(4-chlorophenyl)-5-(3,8-dimethyl-[1,2,4]triazolo[4,3-a]pyridin-6-yl)-1-isopropyl-2-(tetrahydro-2H-pyran-4-yl)-5,6-dihydropyrrolo[3,4-d]imidazol-4(1H)-one]	25 nM	166 nM	27.6 nM	1800 nM	14 nM	8.54 nM	14 nM	>10000 nM	79.2 nM	14.45 nM
Cc1cc(N2C(=O)c3nc(C4=CCOCC4)n(C(C)C)c3C2c2ccc(Cl)cc2)cn2c(CF)nnc12 (stereo not drawn) [Example 88, 6-(4-chlorophenyl)-2-(3,6-dihydro-2H-pyran-4-yl)-5-(3-(fluoromethyl)-8-methyl-[1,2,4]triazolo[4,3-a]pyridin-6-yl)-1-isopropyl-5,6-dihydropyrrolo[3,4-d]imidazol-4(1H)-one]	75 nM	172 nM	42.8 nM	15000 nM	39 nM	23.7 nM	43 nM	>10000 nM	112.1 nM	39.85 nM
COc1ncccc1-c1nc2c(n1C(C)C)C(c1ccc(Cl)cc1)N(c1cc(C)c3nnc(CF)n3c1)C2=O (stereo not drawn) [Example 89, 6-(4-chlorophenyl)-5-(3-(fluoromethyl)-8-methyl-[1,2,4]triazolo[4,3-a]pyridin-6-yl)-1-isopropyl-2-(2-methoxypyridin-3-yl)-5,6-dihydropyrrolo[3,4-d]imidazol-4(1H)-one]	35 nM	63.6 nM	14.9 nM	8350 nM	15 nM	10.3 nM	13 nM	>10000 nM	40.45 nM	20.8 nM
Cc1cc(N2C(=O)c3nc(C4=CC(C)(C)NC(C)(C)C4)n(C(C)C)c3C2c2ccc(Cl)cc2)cn2c(CF)nnc12 (stereo not drawn) [Example 90, 6-(4-chlorophenyl)-5-(3-(fluoromethyl)-8-methyl-[1,2,4]triazolo[4,3-a]pyridin-6-yl)-1-isopropyl-2-(2,2,6,6-tetramethyl-1,2,3,6-tetrahydropyridin-4-yl)-5,6-dihydropyrrolo[3,4-d]imidazol-4(1H)-one]	67 nM	270 nM	82.8 nM	13100 nM	30 nM	16.2 nM	37 nM	>10000 nM	271 nM	31.75 nM
Cc1cc(N2C(=O)c3nc(C4=CCCN(C)C4)n(C(C)C)c3C2c2ccc(Cl)cc2)cn2c(CF)nnc12 (stereo not drawn) [Example 91]	95 nM	353 nM	122 nM	17500 nM	34.5 nM	27.4 nM	45 nM	>10000 nM	334 nM	63.7 nM

Now from value to molecule, other results behind:

IC50 [1]	GI50 [2]	GI50 [3]	IC50 [4]	IC50 [5]	GI50 [6]	IC50 [7]	Compound	K-562 TGI [2]	THP-1 TGI [3]	MV-4-11 TGI [6]
27 nM	110 nM	23.9 nM	5800 nM	< 11 nM	15.3 nM	27 nM	Cc1cc(N2C(=O)c3nc(C4=CCOC4)n(C(C)C)c3C2c2ccc(Cl)cc2)cn2c(CF)nnc12 (stereo not drawn) [Example 92, 6-(4-chlorophenyl)-2-(2,5-dihydrofuran-3-yl)-5-(3-(fluoromethyl)-8-methyl-[1,2,4]triazolo[4,3-a]pyridin-6-yl)-1-isopropyl-5,6-dihydropyrrolo[3,4-d]imidazol-4(1H)-one]	>10000 nM	78.4 nM	33.65 nM
58 nM	596 nM	148 nM	15600 nM	23.5 nM	38.4 nM	35.5 nM	COc1cc(N2C(=O)c3nc(C4CCN(C)CC4)n(C(C)C)c3C2c2ccc(Cl)cc2)cc2c1nnn2C (stereo not drawn) [Example 97]	>10000 nM	432 nM	90.2 nM
28 nM	3630 nM	472 nM	2900 nM	15 nM	126 nM	23 nM	Cc1cc(N2C(=O)c3nc(C4CCN(C)CC4)n(C(C)C)c3C2c2ccc(Cl)cc2)cn2c(C)nnc12 (stereo not drawn) [Example 98, 6-(4-chlorophenyl)-5-(3,8-dimethyl-[1,2,4]triazolo[4,3-a]pyridin-6-yl)-1-isopropyl-2-(1-methylpiperidin-4-yl)-5,6-dihydropyrrolo[3,4-d]imidazol-4(1H)-one]	>10000 nM	2140 nM	282 nM
63 nM	42.9 nM	7.22 nM	> 37000 nM	26.5 nM	4.96 nM	25 nM	Cc1cc(N2C(=O)c3nc(C4=CCOCC4)n(C(C)C)c3C2c2ccc(Cl)cc2)nn2c(C)nnc12 (stereo not drawn) [Example 100, 6-(4-chlorophenyl)-2-(3,6-dihydro-2H-pyran-4-yl)-5-(3,8-dimethyl-[1,2,4]triazolo[4,3-b]pyridazin-6-yl)-1-isopropyl-5,6-dihydropyrrolo[3,4-d]imidazol-4(1H)-one]	>10000 nM	26.7 nM	13.8 nM
34 nM	15.5 nM	3.49 nM	19600 nM	23 nM	1.86 nM	24 nM	Cc1cc(N2C(=O)c3nc(C4CCOCC4)n(C(C)C)c3C2c2ccc(Cl)cc2)nn2c(C)nnc12 (stereo not drawn) [Example 101, 6-(4-chlorophenyl)-5-(3,8-dimethyl-[1,2,4]triazolo[4,3-b]pyridazin-6-yl)-1-isopropyl-2-(tetrahydro-2H-pyran-4-yl)-5,6-dihydropyrrolo[3,4-d]imidazol-4(1H)-one]	>10000 nM	11.05 nM	4.11 nM
